Measurements reported in ChEMBL document CHEMBL1131783, “Prodrugs of CL316243: a selective beta3-adrenergic receptor agonist for treating obesity and diabetes” (Bioorg Med Chem Lett, 1999).

molecular target: Beta-3 adrenergic receptor (Rattus norvegicus) (UniProt P26255); assay: Beta-3-adrenergic activity measured by percent response against free fatty acid (FFA) in rat plasma at a dosage of 0.1 mg/kg; type: functional, organism-based; design: dose 0.1 mg/kg
Sequence (P26255 whole entry): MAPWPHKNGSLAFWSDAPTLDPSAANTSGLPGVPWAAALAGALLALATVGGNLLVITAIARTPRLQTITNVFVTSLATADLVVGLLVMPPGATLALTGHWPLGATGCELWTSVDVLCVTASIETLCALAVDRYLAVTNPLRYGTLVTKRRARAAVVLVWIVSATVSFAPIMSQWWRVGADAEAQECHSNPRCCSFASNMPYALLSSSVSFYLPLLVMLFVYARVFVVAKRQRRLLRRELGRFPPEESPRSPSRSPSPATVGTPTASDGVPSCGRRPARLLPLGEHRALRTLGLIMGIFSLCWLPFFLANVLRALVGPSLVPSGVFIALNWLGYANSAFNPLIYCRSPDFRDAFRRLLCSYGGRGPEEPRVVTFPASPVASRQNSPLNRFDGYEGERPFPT

SMILES | Response
C[C@H](Cc1ccc2c(c1)OC(C(=O)OCC1CCCCO1)(C(=O)OCC1CCCCO1)O2)NC[C@H](O)c1cccc(Cl)c1 (stereo not given in full) | 11%
C[C@H](Cc1ccc2c(c1)OC(C(=O)OC1CCCCC1)(C(=O)OC1CCCCC1)O2)NC[C@H](O)c1cccc(Cl)c1 | 59%
CCOC(=O)C(C)OC(=O)C1(C(=O)OC(C)C(=O)OCC)Oc2ccc(C[C@@H](C)NC[C@H](O)c3cccc(Cl)c3)cc2O1 (stereo not given in full) | 9%
C[C@H](Cc1ccc2c(c1)OC(C(=O)O)(C(=O)OCCOC(C)(C)C)O2)NC[C@H](O)c1cccc(Cl)c1 (stereo not given in full) | 20%
C[C@H](Cc1ccc2c(c1)OC(C(=O)OCCCOCc1ccccc1)(C(=O)OCCCOCc1ccccc1)O2)NC[C@H](O)c1cccc(Cl)c1 | 83%
CCC(=O)OC(C)OC(=O)C1(C(=O)OC(C)OC(=O)CC)Oc2ccc(C[C@@H](C)NC[C@H](O)c3cccc(Cl)c3)cc2O1 (stereo not given in full) | 2%
CC(C)CCC(=O)OCOC(=O)C1(C(=O)OCOC(=O)CCC(C)C)Oc2ccc(C[C@@H](C)NC[C@H](O)c3cccc(Cl)c3)cc2O1 | 37%
C[C@H](Cc1ccc2c(c1)OC(C(=O)O)(C(=O)OCC(C)(C)C)O2)NC[C@H](O)c1cccc(Cl)c1 (stereo not given in full) | 81%
C[C@H](Cc1ccc2c(c1)OC(C(=O)OCC(=O)c1ccccc1)(C(=O)OCC(=O)c1ccccc1)O2)NC[C@H](O)c1cccc(Cl)c1 | 7%
C[C@H](Cc1ccc2c(c1)OC(C(=O)O)(C(=O)OCC1CC1)O2)NC[C@H](O)c1cccc(Cl)c1 (stereo not given in full) | 37%
CCOC(=O)COC(=O)C1(C(=O)OCC(=O)OCC)Oc2ccc(C[C@@H](C)NC[C@H](O)c3cccc(Cl)c3)cc2O1 | 22%
CCC(CC)COC(=O)C1(C(=O)O)Oc2ccc(C[C@@H](C)NC[C@H](O)c3cccc(Cl)c3)cc2O1 (stereo not given in full) | 56%
C[C@H](Cc1ccc2c(c1)OC(C(=O)OCCOc1ccc(Cl)cc1)(C(=O)OCCOc1ccc(Cl)cc1)O2)NC[C@H](O)c1cccc(Cl)c1 | 26%
CCC(=O)OCOC(=O)C1(C(=O)OCOC(=O)CC)Oc2ccc(C[C@@H](C)NC[C@H](O)c3cccc(Cl)c3)cc2O1 | 10%
C[C@H](Cc1ccc2c(c1)OC(C(=O)OCC(=O)Oc1ccccc1)(C(=O)OCC(=O)Oc1ccccc1)O2)NC[C@H](O)c1cccc(Cl)c1 | 37%
COC(=O)C(C)OC(=O)C1(C(=O)OC(C)C(=O)OC)Oc2ccc(C[C@@H](C)NC[C@H](O)c3cccc(Cl)c3)cc2O1 (stereo not given in full) | 42%
CC(C)OC(=O)C1(C(=O)O)Oc2ccc(C[C@@H](C)NC[C@H](O)c3cccc(Cl)c3)cc2O1 (stereo not given in full) | 45%
CC(=O)OCOC(=O)C1(C(=O)OCOC(C)=O)Oc2ccc(C[C@@H](C)NC[C@H](O)c3cccc(Cl)c3)cc2O1 | 39%
C[C@H](Cc1ccc2c(c1)OC(C(=O)OCOC(=O)C(C)(C)C)(C(=O)OCOC(=O)C(C)(C)C)O2)NC[C@H](O)c1cccc(Cl)c1 | 14%
CC(C)C(=O)OCOC(=O)C1(C(=O)OCOC(=O)C(C)C)Oc2ccc(C[C@@H](C)NC[C@H](O)c3cccc(Cl)c3)cc2O1 | 26%
Cc1cccc(CCOC(=O)C2(C(=O)OCCc3cccc(C)c3)Oc3ccc(C[C@@H](C)NC[C@H](O)c4cccc(Cl)c4)cc3O2)c1 | 39%

SMILES | Response
CCOCCOC(=O)C1(C(=O)O)Oc2ccc(C[C@@H](C)NC[C@H](O)c3cccc(Cl)c3)cc2O1 (stereo not given in full) | 73%
CCOC(=O)C1(C(=O)O)Oc2ccc(C[C@@H](C)NC[C@H](O)c3cccc(Cl)c3)cc2O1 (stereo not given in full) | 57%
CCCCCCCCOC(=O)C1(C(=O)O)Oc2ccc(C[C@@H](C)NC[C@H](O)c3cccc(Cl)c3)cc2O1 (stereo not given in full) | 45%
COCCOC(=O)C1(C(=O)OCCOC)Oc2ccc(C[C@@H](C)NC[C@H](O)c3cccc(Cl)c3)cc2O1 | 65%
C[C@H](Cc1ccc2c(c1)OC(C(=O)OCCOc1ccccc1)(C(=O)OCCOc1ccccc1)O2)NC[C@H](O)c1cccc(Cl)c1 | 2%
C=CCOC(=O)C1(C(=O)OCC=C)Oc2ccc(C[C@@H](C)NC[C@H](O)c3cccc(Cl)c3)cc2O1 | 86%
C[C@H](Cc1ccc2c(c1)OC(C(=O)OCCCCCc1ccccc1)(C(=O)OCCCCCc1ccccc1)O2)NC[C@H](O)c1cccc(Cl)c1 | 93%
C[C@H](Cc1ccc2c(c1)OC(C(=O)OCCC1CC1)(C(=O)OCCC1CC1)O2)NC[C@H](O)c1cccc(Cl)c1 | 77%
C[C@H](Cc1ccc2c(c1)OC(C(=O)OC[Si](C)(C)C)(C(=O)OC[Si](C)(C)C)O2)NC[C@H](O)c1cccc(Cl)c1 | 73%
CC(C)OC(=O)COC(=O)C1(C(=O)OCC(=O)OC(C)C)Oc2ccc(C[C@@H](C)NC[C@H](O)c3cccc(Cl)c3)cc2O1 | 78%
C[C@H](Cc1ccc2c(c1)OC(C(=O)OCCOCc1ccccc1)(C(=O)OCCOCc1ccccc1)O2)NC[C@H](O)c1cccc(Cl)c1 | 120%
CCC(CC)OC(=O)C1(C(=O)O)Oc2ccc(C[C@@H](C)NC[C@H](O)c3cccc(Cl)c3)cc2O1 (stereo not given in full) | 52%
CC(OC(=O)OC1CCCCC1)OC(=O)C1(C(=O)OC(C)OC(=O)OC2CCCCC2)Oc2ccc(C[C@@H](C)NC[C@H](O)c3cccc(Cl)c3)cc2O1 (stereo not given in full) | 17%
C[C@H](Cc1ccc2c(c1)OC(C(=O)O)(C(=O)OCC1CCC1)O2)NC[C@H](O)c1cccc(Cl)c1 (stereo not given in full) | 39%
C[C@H](Cc1ccc2c(c1)OC(C(=O)OCC1CC1)(C(=O)OCC1CC1)O2)NC[C@H](O)c1cccc(Cl)c1 | 99%
C[C@H](Cc1ccc2c(c1)OC(C(=O)OCCOc1cccc(Cl)c1)(C(=O)OCCOc1cccc(Cl)c1)O2)NC[C@H](O)c1cccc(Cl)c1 | 88%
COCCOCCOC(=O)C1(C(=O)OCCOCCOC)Oc2ccc(C[C@@H](C)NC[C@H](O)c3cccc(Cl)c3)cc2O1 | 71%
C[C@H](Cc1ccc2c(c1)OC(C(=O)O)(C(=O)OCC[Si](C)(C)C)O2)NC[C@H](O)c1cccc(Cl)c1 (stereo not given in full) | 30%
COCCOC(=O)C1(C(=O)O)Oc2ccc(C[C@@H](C)NC[C@H](O)c3cccc(Cl)c3)cc2O1 (stereo not given in full) | 85%
C[C@H](Cc1ccc2c(c1)OC(C(=O)O)(C(=O)OCC1CCCCC1)O2)NC[C@H](O)c1cccc(Cl)c1 (stereo not given in full) | 47%

Next, values leading:

Response | SMILES
61% | C[C@H](Cc1ccc2c(c1)OC(C(=O)O)(C(=O)OCCC(C)(C)C)O2)NC[C@H](O)c1cccc(Cl)c1 (stereo not given in full)
30% | CCCOC(=O)COC(=O)C1(C(=O)OCC(=O)OCCC)Oc2ccc(C[C@@H](C)NC[C@H](O)c3cccc(Cl)c3)cc2O1
28% | C[C@H](Cc1ccc2c(c1)OC(C(=O)OCCc1cccc(C(F)(F)F)c1)(C(=O)OCCc1cccc(C(F)(F)F)c1)O2)NC[C@H](O)c1cccc(Cl)c1
24% | C[C@H](Cc1ccc2c(c1)OC(C(=O)OCC1CCCO1)(C(=O)OCC1CCCO1)O2)NC[C@H](O)c1cccc(Cl)c1 (stereo not given in full)
71% | C[C@H](Cc1ccc2c(c1)OC(C(=O)OCCc1cccc(Br)c1)(C(=O)OCCc1cccc(Br)c1)O2)NC[C@H](O)c1cccc(Cl)c1
78% | CC(OC(=O)C1(C(=O)OC(C)c2ccccc2)Oc2ccc(C[C@@H](C)NC[C@H](O)c3cccc(Cl)c3)cc2O1)c1ccccc1 (stereo not given in full)
58% | C[C@H](Cc1ccc2c(c1)OC(C(=O)OC/C=C/c1ccccc1)(C(=O)OC/C=C/c1ccccc1)O2)NC[C@H](O)c1cccc(Cl)c1
68% | C[C@H](Cc1ccc2c(c1)OC(C(=O)OCC1CCOC1)(C(=O)OCC1CCOC1)O2)NC[C@H](O)c1cccc(Cl)c1 (stereo not given in full)
86% | CCC(CC)COC(=O)C1(C(=O)OCC(CC)CC)Oc2ccc(C[C@@H](C)NC[C@H](O)c3cccc(Cl)c3)cc2O1
19% | C[C@H](Cc1ccc2c(c1)OC(C(=O)OCOC(=O)C1CCCCC1)(C(=O)OCOC(=O)C1CCCCC1)O2)NC[C@H](O)c1cccc(Cl)c1
80% | C[C@H](Cc1ccc2c(c1)OC(C(=O)OCCc1ccsc1)(C(=O)OCCc1ccsc1)O2)NC[C@H](O)c1cccc(Cl)c1
118% | C[C@H](Cc1ccc2c(c1)OC(C(=O)OC1CCCC1)(C(=O)OC1CCCC1)O2)NC[C@H](O)c1cccc(Cl)c1
86% | CC(C)OCCOC(=O)C1(C(=O)OCCOC(C)C)Oc2ccc(C[C@@H](C)NC[C@H](O)c3cccc(Cl)c3)cc2O1
14% | C[C@H](Cc1ccc2c(c1)OC(C(=O)OCCOC(C)(C)C)(C(=O)OCCOC(C)(C)C)O2)NC[C@H](O)c1cccc(Cl)c1
83% | CCCCOC(=O)C1(C(=O)OCCCC)Oc2ccc(C[C@@H](C)NC[C@H](O)c3cccc(Cl)c3)cc2O1
43% | C[C@H](Cc1ccc2c(c1)OC(C(=O)OCCCCc1ccccc1)(C(=O)OCCCCc1ccccc1)O2)NC[C@H](O)c1cccc(Cl)c1
21% | C[C@H](Cc1ccc2c(c1)OC(C(=O)OCc1ccccc1)(C(=O)OCc1ccccc1)O2)NC[C@H](O)c1cccc(Cl)c1
61% | C[C@H](Cc1ccc2c(c1)OC(C(=O)OCCCc1ccccc1)(C(=O)OCCCc1ccccc1)O2)NC[C@H](O)c1cccc(Cl)c1
46% | CCCCCCCCOC(=O)C1(C(=O)OCCCCCCCC)Oc2ccc(C[C@@H](C)NC[C@H](O)c3cccc(Cl)c3)cc2O1
23% | CC(OC(=O)C(C)(C)C)OC(=O)C1(C(=O)OC(C)OC(=O)C(C)(C)C)Oc2ccc(C[C@@H](C)NC[C@H](O)c3cccc(Cl)c3)cc2O1 (stereo not given in full)
109% | C[C@H](Cc1ccc2c(c1)OC(C(=O)O)(C(=O)OCCOCc1ccccc1)O2)NC[C@H](O)c1cccc(Cl)c1 (stereo not given in full)
84% | C[C@H](Cc1ccc2c(c1)OC(C(=O)OCC1(C)CCCCC1)(C(=O)OCC1(C)CCCCC1)O2)NC[C@H](O)c1cccc(Cl)c1
51% | CCCCCCOC(=O)C1(C(=O)OCCCCCC)Oc2ccc(C[C@@H](C)NC[C@H](O)c3cccc(Cl)c3)cc2O1
83% | CCCCOCCOC(=O)C1(C(=O)O)Oc2ccc(C[C@@H](C)NC[C@H](O)c3cccc(Cl)c3)cc2O1 (stereo not given in full)
78% | C[C@H](Cc1ccc2c(c1)OC(C(=O)OCC(C)(C)CO)(C(=O)OCC(C)(C)CO)O2)NC[C@H](O)c1cccc(Cl)c1
63% | CCC(CC)OC(=O)C1(C(=O)OC(CC)CC)Oc2ccc(C[C@@H](C)NC[C@H](O)c3cccc(Cl)c3)cc2O1
101% | CCOCCOC(=O)C1(C(=O)OCCOCC)Oc2ccc(C[C@@H](C)NC[C@H](O)c3cccc(Cl)c3)cc2O1
66% | CCCCCCOC(=O)C1(C(=O)O)Oc2ccc(C[C@@H](C)NC[C@H](O)c3cccc(Cl)c3)cc2O1 (stereo not given in full)
24% | CCCC(=O)OCOC(=O)C1(C(=O)OCOC(=O)CCC)Oc2ccc(C[C@@H](C)NC[C@H](O)c3cccc(Cl)c3)cc2O1
